In patent US10246712B2, “Genetic or pharmacological reduction of PERK enhances cortical- and hippocampus-dependent cognitive function” (Carmel-Haifa University Economic Corp. Ltd, priority 2015, dated 2019):

Legend:
ATF4 = assay: Immunoblot of ATF4 protein levels in rat insular cortex (IC); format: in vivo; conditions: 1 μl, 100 nM injection to the IC; n=16; data not shown
Method: The rats were cannulated as described in Barki-Harrington et al. (2009). Briefly, the rats were anesthetized by administration of equithesin (0.3 ml/100 g), comprising 2.12% (w/v) MgSO4, 10% (v/v) ethanol, 39.1% (v/v) propyleneglycol, 0.98% (w/v) sodium pentobarbital, and 4.2% (w/v) chloral hydrate. They were restrained in a stereotactic frame (Steolting Europe, Dublin-Ireland) and stainless steel guide cannulae (23-gauge) were bilaterally implanted into the insular cortex, angled at (with reference to bregma), anteroposterior=+1.2 mm, lateral±5.5 mm, and ventral 5.0 mm (1 mm ahead of injecting cannula). Two skull screws were inserted into the skull, and acrylic dental cement was applied to secure the cannulae in position. […]
At the end of the behavioral procedure, the brains were removed, and snap-frozen in liquid nitrogen. […] Protein content was determined with the BCA Protein Assay Kit (GE Healthcare). […]
Samples were prepared in SDS sample buffer, subjected to 7.5-10% SDS-PAGE and Western blot analysis. […] The immunoblots were quantified with a CCD camera and Quantity One software (Bio-Rad, USA). Each sample was measured relative to the background. Phosphorylation levels were calculated as the ratio between chemiluminescence values of the antibody directed against the phosphoproteins and those of the antibody directed against the phosphorylation state independent forms of the proteins.

p-eIF2α = assay: Immunoblot of p-eIF2α levels in CA1 punches; format: in vivo, mouse; conditions: CA1 punches after 100 nM infusion into CA1, adult mice; vs vehicle

SMILES: Cn1cc(-c2ccc3c(c2)CCN3C(=O)Cc2cccc(C(F)(F)F)c2)c2c(N)ncnc21 [GSK2606414, 7-methyl-5-(1-{[3-(trifluoromethyl)phenyl]acetyl}-2,3-dihydro-1H-indol-5-yl)-7H-pyrrolo[2,3-d]pyrimidin-4-amine]
- reduction in ATF4 protein levels (ATF4): 30%
- p-eIF2α levels (p-eIF2α): significant reduction
